Source: PMC7857870, “Design and Synthesis of 4-O-Podophyllotoxin Sulfamate Derivatives as Potential Cytotoxic Agents” (Evidence-based Complementary and Alternative Medicine : eCAM, 2021)
Entries after “also recorded” stand apart in the source; their conditions may differ.

Key:
[1] = system: human breast adenocarcinoma (MCF7); experiment: MTT cytotoxicity assay, 72 h; format: cell-based; details: MTT 72 h, read-out: IC50 ± SD, MCF7
Protocol: (§1) Three cancer cell lines, human breast adenocarcinoma (MCF7), human ovary adenocarcinoma (A2780), and human colon adenocarcinoma (HT29), in addition the normal human fetal lung fibroblast (MRC5), were used. All cell lines were obtained from the ATCC. The three cancer cells were subcultured in RPMI-1640 media (10% FBS), while MRC5 was maintained in Eagles minimum essential medium (EMEM, 10% FBS), all at 37°C, 5% CO2, and 100% relative humidity.
(§2) As previously reported, the cytotoxicity of the six compounds, including podophyllotoxin as reference, was evaluated by the MTT assay. The three cell lines and one normal fibroblast cells were separately cultured in 96-well (3 × 10^3/well) and incubated at 37°C overnight. Final compound concentrations are as follows: 0, 0.005, 0.050, 0.500, 5.000, and 25.000 μM (DMSO 0.1%; n = 3). Plates were incubated for 72 h, followed by addition of MTT to each well. Plates were incubated for 3 hr, supernatant was aspirated, and DMSO was added to each well. The absorbance was read on multiplate reader. The optical density of the purple formazan A550 is proportional to the number of viable cells. Compound concentration causing 50% inhibition (IC50) compared to control cell growth (100%) was determined. GraphPad Prism version 5.00 for Windows, GraphPad Software, San Diego California, USA, was used for analysis.

[2] = system: human colon adenocarcinoma (HT29); experiment: MTT cytotoxicity assay, 72 h; format: cell-based; details: HT-29, MTT 72 h, read-out: IC50 ± SD, HT29
Protocol: as §1, §2

[3] = system: human ovary adenocarcinoma (A2780); experiment: MTT cytotoxicity assay, 72 h; format: cell-based; details: MTT 72 h, read-out: IC50 ± SD, A2780
Protocol: as §1, §2

[4] = system: normal human fetal lung fibroblast (MRC5); experiment: MTT cytotoxicity assay, 72 h, normal cells; format: cell-based; details: MTT 72 h, normal fibroblasts, read-out: IC50 ± SD, MRC5
Protocol: as §1, §2

[5] = system: MCF7 cells; experiment: Annexin V FITC/PI apoptosis assay (flow cytometry); format: cell-based, human; details: 24 h treatment, 0.5-5.0 µM, dose-dependent
Protocol: Annexin V FITC/PI assay was used to evaluate possible ability to induce apoptosis. MCF7 cells were cultured in 6 well plates (1 × 10^5 cells/well) overnight at 37°C. Compounds 2, 3, and 7 were used to treat cells (0, 0.5, 1.0, and 5.0 µM). After 24 h, the supernatant of treated cells was collected in tubes and kept in ice, and cells were trypsinized and incubated at 37°C before being added to the tubes. MCF7 cells were centrifuged (2000 rpm) and washed with PBS (x1), and pellets resuspended in the binding buffer (100 μL) and annexin V FITC (10 μL). Tubes were incubated at room temperature in dark for 20 min, before adding binding buffer (400 μL) and 10 μL propidium iodide (PI). Analysis was performed by flow cytometry (BC, FC500, USA). Different cell populations (early apoptotic, late apoptotic, and necrotic cells) were identified by annexin V and PI staining.

[6] = system: MCF7, A2780, and HT29; experiment: MTT cytotoxicity assay, text summary over the three cancer cell lines and selectivity versus MRC5; format: cell-based, human; details: for IC50: Homo sapiens, MTT, range over three cancer cell lines, read-out: activity (IC50) against the three cell lines MCF7, A2780 and HT29; for selectivity against MCF7, A2780 and HT29 compared to MRC5 cells: cancer cells versus normal MRC5 cells
Protocol: as §1, §2

[7] = Stability observation of the prepared compound; format: physicochemical; details: excluded from the biological assay

SMILES | IC50 [1] [nM] | IC50 [2] [nM] | IC50 [3] [nM] | IC50 [4] [nM] | increase of early apoptotic MCF7 cell population compared to control [5] | IC50 [6] [nM] | selectivity against MCF7, A2780 and HT29 compared to MRC5 cells [6] | melting point | stability of the compound [7]
COc1cc(C2c3cc4c(cc3C(OS(N)(=O)=O)C3COC(=O)C23)OCO4)cc(OC)c1OC (centres unmarked) [Compound 2, 4-O-Podophyllotoxin Sulfamate] | 648 ± 87 | 1340 ± 637 | 729 ± 363 | 7510 ± 1510 | 1.7–2.2 fold | ≤ 1000 | less cytotoxic against MRC5 cells; also recorded: moderate selectivity |  | 
COc1cc(C2c3cc4c(cc3C(OS(=O)(=O)NCc3ccccn3)C3COC(=O)C23)OCO4)cc(OC)c1OC (centres unmarked) [Compound 3, 4-N-(2-Pyridinylmethyl)podophyllotoxin Sulfamate] | 150 ± 60 | 222 ± 98 | 179 ± 10 | 2030 ± 250 | 1.7–2.2 fold | 150 to 220 | 9.1–13.5 fold |  | 
COc1cc(C2c3cc4c(cc3C(OS(=O)(=O)NCCc3ccccn3)C3COC(=O)C23)OCO4)cc(OC)c1OC (centres unmarked) [Compound 4, 4-N-(2-Pyridinylethyl)podophyllotoxin Sulfamate] | 212 ± 10 | 228 ± 75 | 456 ± 180 | 48 ± 3 |  |  | no selectivity | 225 °C | 
COc1cc(C2c3cc4c(cc3C(OS(=O)(=O)Nc3ccccn3)C3COC(=O)C23)OCO4)cc(OC)c1OC (centres unmarked) [Compound 5, 4-N-(2-Pyridinyl)podophyllotoxin Sulfamate] | 184 ± 52 | 1048 ± 5 | 132 ± 12 | 47 ± 42 |  |  | no selectivity | 230 °C (dec.) | 
COc1cc(C2c3cc4c(cc3C(OS(=O)(=O)Nc3ccc(F)cc3)C3COC(=O)C23)OCO4)cc(OC)c1OC (centres unmarked) [Compound 6, 4-N-(4-Flourophenyl)podophyllotoxin Sulfamate] |  |  |  |  |  |  |  | 220 °C | unstable
COc1cc(C2c3cc4c(cc3C(OS(=O)(=O)Nc3ccc5cc6ccccc6cc5c3)C3COC(=O)C23)OCO4)cc(OC)c1OC (centres unmarked) [Compound 7, 4-N-(2-Anthracenyl)podophyllotoxin Sulfamate] | 2120 ± 989 | 5080 ± 673 | 3650 ± 1940 | 9080 ± 1010 | 1.7–2.2 fold | 2120 to 5080 |  |  | 
COc1cc([C@@H]2c3cc4c(cc3[C@H](O)[C@H]3COC(=O)[C@H]23)OCO4)cc(OC)c1OC [Podophyllotoxin] | 4 ± 1 | 2 ± 1 | 7 ± 1 | 43 ± 60 |  |  |  |  | 
